A melting point compilation (Tetko et al.; mined from patent text by program, amines drawn as free bases though some values may be those of a salt)

| Structure (SMILES) | melting point [°C] |
| --- | --- |
| NC(=O)c1c(NC(=O)C2CC2)sc2c(O)c(Br)ccc12 | 235 to 236 |
| N#Cc1ccc(-c2cccc(-c3nc4cc(C#N)ccc4[nH]3)c2O)cc1 | 318 to 320 |
| C=CC1CCC2C3CCC4=CC(O)C=CC4(C)C3CCC12C (centres undefined) | 98 to 128 |
| Cc1csc(C(=O)c2[nH]c3cc(Cl)ccc3c2CC(=O)O)n1 | 239 to 240 |
| CN1C(=C(C#N)C#N)Oc2ccccc21 | 198 to 200 |
| COc1ccc(C2=NN(CCCCBr)C(=O)[C@H]3CC=CC[C@@H]23)cc1OC (relative stereo) | 102 to 103 |
| Cc1cc([N+](=O)[O-])cc2c1S(=O)C=N2 (centres undefined) | > 250 |
| CS(=O)(=O)N[C@@H]1CCCC[C@H]1Nc1nc(Nc2ccc3c(c2)CCC(=O)CC3)ncc1Cl | 146 to 153 |
| Cc1nnc(-c2ccc3occ(-c4ccc(S(C)=O)c(C)c4)c3c2)o1 (centres undefined) | 195 to 196 |
| Ic1ccc(C2CCCCO2)cc1-c1cc(C2CCCCO2)ccc1I (centres undefined) | 112 to 113 |
| COc1cc(COC2CCN(C(=O)c3ccc([N+](=O)[O-])cc3)CC2)cc(OC)c1OC | 124 |
| CCOC(=O)[C@H]1O[C@@H]1C(=O)N[C@H](COCc1ccsc1)CC(C)C | 61 to 62.5 |
| COc1cc(OCc2ccncc2)ccc1/C=C/c1cc(/C=C/c2ccc3cc[nH]c3c2)n[nH]1 | 103 to 118 |
| COc1cc(Cl)c(NS(C)(=O)=O)cc1C(=O)NCC1CCCO1 (centres undefined) | 159 to 160 |
| Cc1ccccc1-c1cc(C#N)cc2c1OC(CN)C2 (centres undefined) | 127 to 129 |
| CCCCCCCCCCCCCCCCOc1ccc(O)cc1 | 87 to 88 |
| Brc1ccc2c(c1)C1(c3ccccc3-c3ccccc31)c1ccccc1-2 | 181 to 183 |
| Cn1c(C(F)(F)F)cc(=O)n(-c2ccc(OCc3ccc(Cl)cc3)cc2F)c1=O | 134 to 135 |
| O=C(Nc1ccc(-n2nc(C(F)(F)F)cc2C(F)(F)F)cc1)c1c(F)c(F)cc(F)c1F | 235 to 237 |
| CCOCc1nc2c(N)nc3cc(-c4cccnc4)ccc3c2n1CC1CCN(C(=O)OC(C)(C)C)CC1 | 197 to 198 |

| Structure (SMILES) | melting point [°C] |
| --- | --- |
| O=C(O)C(O)P(=O)(O)O (centres undefined) | 153 to 154 |
| CCOC(=O)c1sc2[nH]c(=O)c(=O)[nH]c2c1CC | > 300 |
| CCOC(=O)CCC(=O)c1ccc(Cl)cc1O | 68 to 69 |
| CCc1cccc(C)c1N1C(=O)C=CC1=O | 84.5 to 85 |
| Nc1cc(C=O)ncc1F | 133 to 135 |
| COCC1(O)CCN(c2ccc(N3C[C@H](CNC(C)=O)OC3=O)cc2F)CC1 | 80 to 82 |
| CCOCn1c(Cl)c(C#N)c(Cl)c1-c1ccc(Cl)c(Cl)c1 | 106 to 109 |
| O=C(O)c1ncn2c1CN(C(=O)N1CCCC1)c1ccccc1-2 | 197 to 200 |
| CN(C)c1nc2n(n1)CCc1ccccc1-2 | 66 to 68 |
| COC(=O)c1ccc(Cn2c(=O)c3cc(C(=O)NCc4ccc(OC)cc4)sc3n(C)c2=O)cc1C | 179 to 181 |
| Clc1ccc2c(c1)NC(c1ccncc1)c1cc(Cl)ccc1O2 (centres undefined) | 202 to 205 |
| Cc1ccc(-c2cc(C)c3c(c2)C(C)CC(=O)N3)c(C)n1 (centres undefined) | 146 to 148 |
| CC(=Cc1c[nH]c2ccc(CNS(C)(=O)=O)cc12)[N+](=O)[O-] | 201 to 202 |
| Cc1cnc2c(NC(=O)c3c(Cl)cccc3Cl)ccc(C)c2c1N1CCN(C)C1=O | > 300 |
| CCCCCCCCCCCCCCCCCCOC(=O)CCC1CCCCC1(c1ccc(O)c(C(C)(C)C)c1)c1ccc(O)c(C(C)(C)C)c1 (centres undefined) | 155 |
| CC(C)C(NC(=O)OC(C)(C)C)C(=O)NC(C(=O)OCC1OC(n2cc(C=CBr)c(=O)[nH]c2=O)CC1N=[N+]=[N-])C(C)C (centres undefined) | 95 to 97 |
| CC(=O)Nc1cc(OS(=O)(=O)c2ccc(C)cc2)nc(=N)n1OC(C)=O | 196 to 200 |
| c1cncc(-c2ccc3c(c2)OCO3)c1 | 92 to 92.5 |
| COC1=CC23CCN(C)C(Cc4ccc(OC)c(O)c42)C3=CC1C (centres undefined) | 97 to 100 |
| COc1ccc(C(=O)Nc2ccc3ccc(SC)nc3n2)cc1 | 130 |

| Structure (SMILES) | melting point [°C] |
| --- | --- |
| CC(=O)N1CCc2cc(CCN3CCC(c4noc5cc(F)ccc45)CC3)sc2C1 | 130 to 132 |
| NC(=O)C1=C(C(=O)Nc2cc(OC3CCCC3)c(Cl)cc2F)CCCC1 | 200 to 201 |
| COc1ccc(CC#N)c2c1OC(C)(C)O2 | 58 to 59 |
| CCNC1=NS(=O)(=O)c2cccc(F)c21 | 236 to 238 |
| O=C1CCC(N2Cc3c(OCc4ccc(CN5CCC(c6cccc(F)c6)CC5)cc4)cccc3C2=O)C(=O)N1 (centres undefined) | 200 to 202 |
| Cc1ccc2c(c1)oc1c(C(=O)O)nn(-c3ccc(Cl)cc3Cl)c12 | 228 to 230 |
| CC(C)(C)c1ccc(Cn2cc(C(=O)C(=O)O)c3cc(-c4cccc(Cl)c4)ccc32)cc1 | 138 to 139 |
| CCCC1CCN(CCCCC(=O)c2cc(Cl)c(N)cc2OCc2cc(OC)cc(OC)c2)CC1 | 119 to 120 |
| COc1cc2sc(/C=C(\Oc3ccc(C(C)C)cc3)C(=O)O)cc2c(Cl)c1OC | 255 to 256 |
| CSc1nc(C)ccc1NC(=O)CSc1nc2ccccc2[nH]1 | 192 to 193 |
| CCN(CC)C(N)=C(C#N)C(N)=S | 151 to 152 |
| Cc1cc2nc(Cl)c(Cl)nc2c(N)c1C | 178 to 180 |
| CC(C)(C)OC(=O)N1CCC(c2nc3cc(-c4ccc(S(C)(=O)=O)cc4F)ccc3[nH]2)CC1 | 88 to 92 |
| Cc1ccc2c(c1)c(-c1ccc(F)cc1)c(C)n2C1CCN(CCN2CCNC2=O)CC1 | 188 to 190 |
| CCOC(=O)Cc1csc(NC(=O)c2sc3ccc(OC)cc3c2OC(C)C)n1 | 91 to 92 |
| C(#Cc1ccc2[nH]ccc2c1)CCN1CC=C(c2ccccc2)CC1 | 173 to 174 |
| C[C@@H]1O[C@](C#CC2CC2)(C(F)(F)F)c2cc(F)ccc2NC1=O (relative stereo) | 184 to 185 |
| CCCN(CCC)c1nsc(NC(=O)NC)c1C(N)=O | 168 to 169 |

Results, then the compound that gave them:

| melting point [°C] | Structure (SMILES) |
| --- | --- |
| 103 | COc1cc(C)nc(-c2cccc(-c3ccccc3C)n2)n1 |
| 119 to 122 | COc1cccc(CCc2ccccc2C(=O)O)c1 |
| 42 | CC(=O)N(C#N)Cc1ccccc1 |
| 285 | C[C@H](NC1Cc2ccccc2C1)C(=O)O |
| 70 to 72 | O=C(CC(=O)c1ccc(F)cc1)c1ccc(F)cc1 |
| 237 to 238 | O=C(O)COc1cc2c(=O)c3ccccc3oc2cc1Cl |
| 163 | CN(C)C1CCN(c2nc(N3CCOCC3)c3ncnc(N(Cc4ccccc4)Cc4ccccc4)c3n2)CC1 |
| 56 to 58 | CCCCc1oc2ccccc2c1C(=O)c1cc(Br)c(O[C@H](Cc2ccccc2)C(=O)O)c(Br)c1 |
| 228 | CNc1ccn2c(C(=O)c3ccc([N+](=O)[O-])c(OC)c3)c(C)c(C(=O)OCc3ccccc3)c2c1 |
| 135 to 137 | Cc1cc(SCc2ccc(OCc3ccc(C(C)(C)C)cc3)cc2)ccc1OCC(=O)O |
| 120 to 121 | O=c1oc(-c2ccc(Sc3ccccc3)cc2)cc(O)c1SCCc1ccccc1 |
| 130 to 132 | COc1cc2ccccc2cc1C(=O)O |
| 112 to 115 | OC(Cn1ccnc1)c1cccc2ccccc12 (centres undefined) |
| 150 to 152 | CCCn1nc2c(N)nc3ccccc3c2c1CCCC1=CCN(Cc2ccccc2)C1 |
| 113 to 115 | Cc1cccc(C)c1N(CCCCCCc1cccnc1)C(=O)C(C)N1C(=O)c2ccccc2C1=O (centres undefined) |
| 133 to 135 | O=C(C=Cc1ccccc1Cl)Nc1cc(Cl)cc(Nc2noc3ccccc23)c1 |
| 159 to 160 | COc1ccccc1CNCc1c(-c2ccccc2)c2cc(C)c(C)cc2c(=O)n1C |
| 148 to 149 | Cc1cn(Cc2cccc(Cl)c2)cc1C(=O)CC(=O)C(=O)O |
| 140 | COc1ccc(CN(C)CCCCc2ccc(NC(=O)c3cccc4c(=O)c5ccccc5[nH]c34)cc2)cc1OC |
| 124 to 127 | CC(COc1ccccc1)NCC(O)COc1cccc(O)c1 (centres undefined) |
| 211 | O=c1c2ccccc2nc(-c2ccccc2Cl)n1O |

| melting point [°C] | Structure (SMILES) |
| --- | --- |
| 130 | COc1cc(O)c(C(=O)C=Cc2ccc(C)cc2)c(OC)c1 |
| 295 to 296 | O=C1c2cc(Cl)ccc2-n2c1nc1ccccc1c2=O |
| 159 | CC(=O)OC1CSC(Sc2ccc(S(=O)(=O)c3ccccc3)cc2)C(OC(C)=O)C1OC(C)=O (centres undefined) |
| 136 to 138 | O=C1c2ccccc2C(=O)N1OCCN(CCO)CCON1C(=O)c2ccccc2C1=O |
| 178 to 180 | Cc1ccc(-c2cccc(/C=C/C(=O)Nc3ccc(CCl)cc3)c2)cc1 |
| 58 | COc1ccccc1CN[C@H]1CCCN(C)[C@H]1c1ccccc1 (relative stereo) |
| 211 to 214 | O=C(NS(=O)(=O)c1ccc(Cl)cc1)N1CC(c2ccccc2)C(c2ccc(Cl)cc2)=N1 (centres undefined) |
| 148 to 149 | COc1ccc(C(C)(O)c2cccc(OCc3nc(-c4ccccc4)oc3C)c2)c(OCC(=O)O)c1 (centres undefined) |
| 166 to 169 | C#CCOc1cccc(-n2c(-c3ccccc3)cc(=O)c(C)c2-c2ccccc2)c1 |
| 78 to 81 | COc1cc(NCCCCCCN2CCN(c3ccccn3)CC2)c2nccc(C)c2c1 |
| 237 | CCCOC(=O)C1=C(N)NC(C)=C(C#N)C1c1cccc2ncc(-c3ccccc3)cc12 (centres undefined) |
| 231 | CCNC(=O)Nc1nc2cc(-c3cccnc3)cc(-c3ccc(C)cn3)c2s1 |
| 89 to 91 | CCCCCCCCCNC(=O)OCCCNC(=O)OC1CCN(C(=O)Oc2ccc(Oc3ccccc3)cc2)CC1 |
| 202 to 205 | Cc1cccc(-c2ccc(=O)[nH]n2)c1 |
| 108 to 109 | C=CCCOc1ccc(C(=O)Oc2ccc3ccc(=O)oc3c2)cc1 |
| 140 to 141 | CC1(c2ccccc2)CN(c2ccnc(N)c2)C(=O)O1 (centres undefined) |
| 118 to 119 | Cc1nc(CC#N)c2c(OCc3ccccc3)cccn12 |
| 145 to 148 | CS(=O)(=O)CCOCCn1cnc2c(N)nc3ccccc3c21 |
| 142 to 145 | Clc1cc(-c2cc3ccccc3s2)nc2ccccc12 |
| 135 to 137 | CC(=CC#Cc1ccccc1)C(=O)NCCCCCC(=O)NO |
